Reference: patent publication US20100204161A1, “Substances and Pharmaceutical Compositions for the Inhibition of Glyoxalases and Their Use Against Bacteria” (BIOMAC PRIVATINSTITUT FUR MEDIZINISHE UND ZAHMEDIZ …, priority 2005, published 2010)

How the values were obtained:
yeast glyoxalase II = assay: Enzymatic activity of yeast glyoxalase II (cell free extract, DTNB, 412 nm); format: biochemical, Saccharomyces cerevisiae; conditions: 0-20 mM; FIG. 4
Experimental: Protein concentration of the cell free extract was determined according to the Bradford method (Bradford, 1976).
The activity of the glyoxalase II (Hydroxyacyl glutathione hydrolase, E.C. 3.1.2.6.) was determined according to the instructions of Martins et al. (1999) in 0.1 M MES buffer, pH 6.5, 1.5 mM S-D-lactoyl-glutathione (L7140, Sigma-Aldrich Chemistry GmbH) and 0.75 mM DTNB (Sigma, D8130). After addition of suitable amounts of cell extract and an incubation period of 15 min at 25° C. the formation of glutathione was measured at 412 nm (ε=13.6 mM^−1 cm^−1). The activity of the glyoxalase II (IU) correlates with the amount of enzyme hydrolysing 1 μmol of S-D-lactoyl-glutathion/min.
The influence of ethyl pyruvate on the activity of the enzyme was investigated by adding increasing concentrations of EP (Sigma, No. E4, 780-8; Lot. S18972-513) (0-20 mM) to the measurement reagent.

[1] = target: T1, glyoxalase II of human erythrocytes (Homo sapiens, UniProt Q16775); assay: Enzymatic activity of human erythrocyte glyoxalase II (erythrocyte hemolysate); format: biochemical; conditions: 0-20 mM; FIG. 6
T1 construct: from tissue; host or cells: human erythrocyte hemolysate
Experimental: The determination of erythrocyte glyoxalase II (E.C.3.1.2.6., hydroxyacyl glutathione hydrolase) was performed according to the instructions of McLellan and Thornalley (1989). The principle is based on determining the initial hydrolysis of S-D-lactoyl-glutathione (L 7140, Sigma-Aldrich Chemie GmbH) in the presence of low amounts of a cell extract. Hydrolysis is observed on the basis of the reduction of the extinction at 240 nm (e=−3.1 mM-1 cm-1). Glyoxalase II activity (IU) correlates to the amount of enzyme hydrolysing 1 μmol of S-D-lactoyl-glutathione/min. The measurement was performed in 100 mM Tris-HCl buffer, pH 7.4. For this purpose 0.4 mM S-D-lactoyl-glutathione was added to 1 ml of the measuring reagent and the reaction was started by addition of suitable amounts (5-100 μl) of an erythrocyte hemolysate. The erythrocyte lysate was prepared according to the instructions of Mannervik et al. (1982).
Determination of glyoxalase II activity was performed according to the general protocol as described above. The influence of ethyl pyruvate on the activity of the enzyme was investigated by addition of increasing concentrations of EP (Sigma, no. E 4, 780-8; lot. S18972-513) (0-20 mM) to the measuring reagent.

[2] = system: biofilms (biofilm-forming microorganisms from pipe water); assay: Destruction of biofilms on contaminated silicone surfaces (colony forming units); format: cell-based; conditions: for Colony forming units derivable from biofilms after treatment: normalized to 1 cm2 inner tube surface
Experimental: Biofilms were allowed to generate in a silicon tube system according to Gebel et al. (2005). In short, pipe water from a public water distributor was used as the source of biofilm-forming microorganisms. Water flow was at about 20 l per hour through silicon tubes from two commercial suppliers with inner diameters of 4 mm for 30 days at 25° C. After that the tubes were emptied, sealed at both ends and treated on their outer surface with 0.2% peroxoacetic acid for 1 hour. Tubes were then rinsed with sterile water and afterwards cut into pieces of 5 cm length each using a sterile scalpel. Pieces obtained this way were then dipped into solutions which contained the substance to be tested or respective controls. 25 ml of the test solutions were used in closed Falcon tubes (50 ml). […] Tubes were opened over their full length with scissors and the material deposited at the original inner surfaces of the tubes homogenized in 10 ml of saline (9 g NaCl/l water). Dilutions were made (decimal steps to 10^4) and 0.1 ml of these solutions plated onto test agar plates (1 l contained 0.5 g yeast extract, 0.5 g peptone, 0.5 g casein hydrolysate, 0.5 g starch. 0.3 g potassium hydrogen phosphate, 24 mg magnesium sulphate, 0.3 g sodium pyruvate, 15 g agar). Plates were incubated for seven days at 20° C. Colonies which formed were counted on each plate independent of their appearance and color. […] Two dilutions must be consistent in colony numbers, taken into consideration the respective dilution factors. Numbers were normalized to 1 cm2 of the inner tube surface. Each substance was analysed in duplicates. Biofilms were treated with water (control), ethyl pyruvate […] Numbers are given for each of the different silicon tubes used.

[3] = system: different microbial species: Candida spp., Escherichia coli, Klebsiella oxytoca, Pseudomonas aeruginosa, Enterococcus faecalis, Enterococcus faecium, MRSA …; assay: Agar dilution antimicrobial susceptibility test, aerobic conditions; conditions: 12.5 mM to 40 mM in agar, 37° C., 20 hours, 21 strains incl. ESBL and MRSA, FIG. 8
Experimental: The agar dilution method was used for antimicrobial susceptibility test. A series of plates (petri dishes; Greiner, Cat No. 933161) were prepared with 20 ml agar medium (Iso-Sensitest-Agar Ca. No. CM474, OXOID, Germany) to which various concentrations of EP (12.5 mM to 40 mM) were added. Control agar plates were prepared without EP. The plates are then inoculated with a suitable-standardized suspension of the test microbial species (10^4 cfu) using an automated spotter (spots 1-21). The agar plates were incubated under aerobic conditions at 37° C. for 20 hours. At the respective positions of the spots growth (if permissive under the selected conditions) will result in the formation of cell discs. The evaluation of the test results is performed by inspecting the sizes of these discs. […]

CCOC(=O)C(C)=O [Ethyl pyruvate]
Influence on the enzymatic activity of yeast glyoxalase II (yeast glyoxalase II): inhibits the reaction of yeast glyoxalase II in a concentration dependent manner | Inhibition of the enzymatic activity of glyoxalase II of human erythrocytes [1]: inhibits the reaction of glyoxalase II in a concentration dependent manner | Colony forming units derivable from biofilms after treatment ([2]; 10 mM, 30 min, first silicon tube): 4.9 × 10^3 colony forming units | Colony forming units derivable from biofilms after treatment ([2]; 10 mM, 30 min, second silicon tube): 5.2 × 10^3 colony forming units | Colony forming units derivable from biofilms after treatment ([2]; 10 mM, 120 min, first silicon tube): 1.6 × 10^3 colony forming units | Colony forming units derivable from biofilms after treatment ([2]; 10 mM, 120 min, second silicon tube): 1.7 × 10^3 colony forming units | Colony forming units derivable from biofilms after treatment ([2]; 25 mM, 30 min, first silicon tube): 4.4 × 10^2 colony forming units | Colony forming units derivable from biofilms after treatment ([2]; 25 mM, 30 min, second silicon tube): 4.2 × 10^2 colony forming units | Colony forming units derivable from biofilms after treatment ([2]; 25 mM, 120 min, first silicon tube): <10^2 colony forming units | Colony forming units derivable from biofilms after treatment ([2]; 25 mM, 120 min, second silicon tube): <10^2 colony forming units | number of colony forming units after treatment of biofilm ([2]; 25 mM, decreases from about 10^7, Table 5): < 10^2 colony forming units | Effectiveness against biofilms compared to peroxoacetic acid ([2]; compared to 0.1% peroxoacetic acid): even more effective compared to a common disinfectant | Effect on growth of different microbial species [3]: effectively inhibits the growth and proliferation of different microbial species
